Converted amounts (≈) assume the structure as drawn.

Holding throughout (experiment): Microtitre plate assay, IC90 determination
Common to all, as to assay type: cell-based

For experiment [1], the system named is Enterococcus faecalis (ATCC29212). The settings on record: 90% inhibitory concentration for bacterial growth, 37° C., resazurin fluorescence, read-out: IC90 (μg/ml) EFA 29212. The method, then: (§1) The bacteria used in this study were grown overnight in flasks containing 100 ml Mueller-Hinton Broth (Becton Dickinson—cat. no. 275730) in sterile de-ionized water, with shaking, at 37° C. Stocks (0.5 ml/tube) were stored at −70° C. until use. Bacteria titrations were performed in microtiter plates and colony forming units (CFUs) were determined. In general, an inoculum level of approximately 100 CFUs was used for susceptibility testing.
(§2) Anti Bacterial Susceptibility Testing: IC90 Determination
(§3) Flat-bottom, sterile 96-well plastic microtiter plates were filled with 180 μl of sterile deionized water, supplemented with 0.25% BSA. Subsequently, stock solutions (7.8×final test concentration) of compounds were added in 45 μl volumes in column 2 Serial five-fold dilutions (45 μl in 180 μl) were made directly in the microtiter plates from column 2 to reach column 11. Untreated control samples with (column 1) and without (column 12) inoculum were included in each microtiter plate. Depending on the bacteria type, approximately 10 to 60 CFU per well of bacteria inoculum (100 TCID50), in a volume of 100 μl in 2.8× Mueller-Hinton broth medium, was added to the rows A to H, except column 12. The same volume of broth medium without inoculum was added to column 12 in row A to H. The cultures were incubated at 37° C. for 24 hours under a normal atmosphere (incubator with open air valve and continuous ventilation). At the end of incubation, one day after inoculation, the bacterial growth was quantitated fluorometrically. Therefore resazurin (0.6 mg/ml) was added in a volume of 20 μl to all wells […], and the plates were re-incubated overnight. A change in colour from blue to pink indicated the growth of bacteria.
(§4) The fluorescence was read in a computer-controlled fluorometer (Cytofluor Biosearch) at an excitation wavelength of 530 nm and an emission wavelength of 590 nm. The % growth inhibition achieved by the compounds was calculated according to standard methods. The IC90 (expressed in μg/ml) was defined as the 90% inhibitory concentration for bacterial growth.

Experiment [2] relates to methicilline resistant Staphylococcus aureus (MRSA) (a clinical isolate from the University of Antwerp). The note with it: 90% inhibitory concentration for bacterial growth, 37° C., resazurin fluorescence, read-out: IC90 (μg/ml) STA RMETHIC. The method, then:
as §1, §2, §3, §4
A general note: Alamar Blue is a resazurin reagent that responds to reducing activity.

Experiment [3] concerns Listeria monocytogenes (ATCC49594). The note with it: 90% inhibitory concentration for bacterial growth, 37° C., resazurin fluorescence, read-out: IC90 (μg/ml) LMO 49594. The method, then: as §1, §2, §3, §4
The test system of experiment [4] is Staphylococcus aureus (ATCC43300). The note with it: 90% inhibitory concentration for bacterial growth, 37° C., resazurin fluorescence, read-out: IC90 (μg/ml) STA 43300. The method, then: as §1, §2, §3, §4
Experiment [5] has as its system Pseudomonas aeruginosa (ATCC27853). The note with it: 90% inhibitory concentration for bacterial growth, 37° C., resazurin fluorescence, read-out: IC90 (μg/ml) PAE 27853. The method, then:
as §1, §2, §3, §4

Experiment [6] relates to Enterococcus faecalis (ATCC14506). The note with it: 90% inhibitory concentration for bacterial growth, 37° C., resazurin fluorescence, read-out: IC90 (μg/ml) EFA 14506. The method, then: as §1, §2, §3, §4
Experiment [7] relates to Streptococcus mutans (ATCC33402). The settings on record: 90% inhibitory concentration for bacterial growth, 37° C., resazurin fluorescence, read-out: IC90 (μg/ml) SMU 33402. The method, then: as §1, §2, §3, §4
The subject of experiment [8] is Staphylococcus aureus (ATCC25923). The note with it: 90% inhibitory concentration for bacterial growth, 37° C., resazurin fluorescence, read-out: IC90 (μg/ml) STA 25923. The method, then: as §1, §2, §3, §4
For experiment [9], the system named is Streptococcus pneumoniae (ATCC6305). The note with it: 90% inhibitory concentration for bacterial growth, 37° C., resazurin fluorescence, read-out: IC90 (μg/ml) SPN 6305. The method, then: as §1, §2, §3, §4
Experiment [10] relates to Bacillus subtilis (ATCC43639). The note with it: 90% inhibitory concentration for bacterial growth, 37° C., resazurin fluorescence, read-out: IC90 (μg/ml) BSU 43639. The method, then:
as §1, §2, §3, §4

Experiment [11] has as its system Staphylococcus aureus (ATCC29213). The note with it: 90% inhibitory concentration for bacterial growth, 37° C., resazurin fluorescence, read-out: IC90 (μg/ml) STA 29213. The method, then: as §1, §2, §3, §4
Experiment [12] concerns Streptococcus pyogens (ATCC8668). The note with it: 90% inhibitory concentration for bacterial growth, 37° C., resazurin fluorescence, read-out: IC90 (μg/ml) SPY 8668. The method, then:
as §1, §2, §3, §4

In experiment [13] the test system is Escherichia coli (ATCC25922). The settings on record: 90% inhibitory concentration for bacterial growth, 37° C., resazurin fluorescence, read-out: IC90 (μg/ml) ECO 25922. The method, then:
as §1, §2, §3, §4

Experiment [14] concerns Escherichia coli (ATCC1403). The note with it: 90% inhibitory concentration for bacterial growth, 37° C., resazurin fluorescence, read-out: IC90 (μg/ml) ECO 1403. The method, then:
as §1, §2, §3, §4

Experiment [15] has as its system Escherichia coli (ATCC35218). The settings on record: 90% inhibitory concentration for bacterial growth, 37° C., resazurin fluorescence, read-out: IC90 (μg/ml) ECO 35218. The method, then:
as §1, §2, §3, §4

In the case of `COc1nc2c(C(O)(CCN(C)C)c3cc(F)cc(F)c3)cc(Br)cc2cc1Cc1ccccc1` (stereo not drawn) [Compound 12], the IC90 was determined as 13.6 µg/mL (≈ 25.1 µM) in experiment [1]; 12.1 µg/mL (≈ 22.3 µM) in [2]; 13.6 µg/mL (≈ 25.1 µM) in experiment [3]; 10.8 µg/mL (≈ 19.9 µM) in experiment [4]; 10.8 µg/mL (≈ 19.9 µM) in experiment [5]; 10.8 µg/mL (≈ 19.9 µM) in experiment [6]. In addition, the IC90 stood at 10.8 µg/mL (≈ 19.9 µM) in experiment [7]; 12.1 µg/mL (≈ 22.3 µM) in [8]; 12.1 µg/mL (≈ 22.3 µM) in experiment [9]; 13.6 µg/mL (≈ 25.1 µM) in experiment [10]; 10.8 µg/mL (≈ 19.9 µM) in experiment [11]; 10.8 µg/mL (≈ 19.9 µM) in experiment [12].

On to `CN(C)CCC(O)(c1cc(F)cc(F)c1)c1cc(Br)cc2cc(Cc3ccccc3)c(-n3ccnc3)nc12` (stereo not drawn) [Compound 19], for which the IC90 was found to be 14.5 µg/mL (≈ 25.1 µM) in experiment [1]; 14.5 µg/mL (≈ 25.1 µM) in experiment [2]; 14.5 µg/mL (≈ 25.1 µM) in [3]; 11.5 µg/mL (≈ 19.9 µM) in [4]; 14.5 µg/mL (≈ 25.1 µM) in experiment [5]; 11.5 µg/mL (≈ 19.9 µM) in [7]. For the same compound, the IC90 in [8] came to 12.9 µg/mL (≈ 22.3 µM); in experiment [9], 14.5 µg/mL (≈ 25.1 µM); in [10] it was 14.5 µg/mL (≈ 25.1 µM); in experiment [11], 14.5 µg/mL (≈ 25.1 µM); in experiment [12], 11.5 µg/mL (≈ 19.9 µM).

In the case of `CN(C)CCC(O)(c1cccs1)c1cc(Br)cc2cc(Cc3ccccc3)c(N3CCN(C)CC3)nc12` (stereo not drawn) [Compound 20], the IC90 in experiment [1] turned out to be 14.6 µg/mL (≈ 25.2 µM); in [2] it was 46 µg/mL (≈ 79.4 µM); in [13] it was 14.6 µg/mL (≈ 25.2 µM); in experiment [3] it was 14.6 µg/mL (≈ 25.2 µM); in experiment [5], 14.6 µg/mL (≈ 25.2 µM); in [14], 13 µg/mL (≈ 22.4 µM). Further, the IC90 turned out to be 14.6 µg/mL (≈ 25.2 µM) in [7]; 13 µg/mL (≈ 22.4 µM) in [8]; 14.6 µg/mL (≈ 25.2 µM) in experiment [9]; 14.6 µg/mL (≈ 25.2 µM) in experiment [10]; 11.6 µg/mL (≈ 20 µM) in experiment [11]; 11.6 µg/mL (≈ 20 µM) in experiment [15]. Further, in [12], the IC90 was 11.6 µg/mL (≈ 20 µM).

Consider `CN(C)CCC(O)(c1cccs1)c1cc(Br)cc2cc(Cc3ccccc3)c(N(C)C)nc12` (stereo not drawn) [Compound 46], for which the IC90 amounted to 10.5 µg/mL (≈ 20 µM) in experiment [1]; 9.3 µg/mL (≈ 17.7 µM) in experiment [2]; 10.5 µg/mL (≈ 20 µM) in experiment [3]; 10.5 µg/mL (≈ 20 µM) in experiment [4]; 10.5 µg/mL (≈ 20 µM) in [5]; 10.5 µg/mL (≈ 20 µM) in experiment [6]. For the same compound, the IC90 in [7] is 10.5 µg/mL (≈ 20 µM); in [8], 11.7 µg/mL (≈ 22.3 µM); in experiment [9], 10.5 µg/mL (≈ 20 µM); in [10] it was 10.5 µg/mL (≈ 20 µM); in [11], 10.5 µg/mL (≈ 20 µM); in [12], 10.5 µg/mL (≈ 20 µM).

As for `CN(C)CCOc1nc2c(C(O)(CCN(C)C)c3ccccc3)cc(Br)cc2cc1Cc1ccccc1` (stereo not drawn) [Compound 49], the IC90 in experiment [1] is 56.3 µg/mL (≈ 100 µM); in [2] it was 56.3 µg/mL (≈ 100 µM); in experiment [13], 56.3 µg/mL (≈ 100 µM); in [3], 56.3 µg/mL (≈ 100 µM); in experiment [5], 56.3 µg/mL (≈ 100 µM); in experiment [7], 44.7 µg/mL (≈ 79.5 µM). The IC90 in [8] was 56.3 µg/mL (≈ 100 µM); in [9], 56.3 µg/mL (≈ 100 µM); in experiment [10], 56.3 µg/mL (≈ 100 µM); in experiment [11], 44.7 µg/mL (≈ 79.5 µM); in experiment [12], 22.4 µg/mL (≈ 39.8 µM).

`CN(C)CCC(O)(c1ccccc1)c1cc(Br)cc2cc(Cc3ccccc3)c(NCCC(c3ccccc3)c3ccccc3)nc12` (stereo not drawn) [Compound 59]: the IC90 was 17.2 µg/mL (≈ 25.1 µM) in experiment [1]; 54.4 µg/mL (≈ 79.4 µM) in experiment [2]; 10.9 µg/mL (≈ 15.9 µM) in experiment [3]; 17.2 µg/mL (≈ 25.1 µM) in experiment [4]; 17.2 µg/mL (≈ 25.1 µM) in [5]; 54.4 µg/mL (≈ 79.4 µM) in experiment [6]. The IC90 is 15.3 µg/mL (≈ 22.3 µM) in experiment [7]; 54.4 µg/mL (≈ 79.4 µM) in [8]; 17.2 µg/mL (≈ 25.1 µM) in experiment [9]; 10.9 µg/mL (≈ 15.9 µM) in [10]; 15.3 µg/mL (≈ 22.3 µM) in experiment [11]; 15.3 µg/mL (≈ 22.3 µM) in [15]. The IC90 in [12] is 15.3 µg/mL (≈ 22.3 µM).

The values above are taken from patent US8017606B2, “Quinoline derivatives as antibacterial agents” (Janssen Pharmaceutica NV, priority 2005, dated 2011).
